“And” between values parts separate entries of the source, which are not always exact repeats. Equal values may be shown once. Toxic doses and inconclusive results are not listed.
Test system: BDF1 mice, P388 leukemia ip, median survival T/C
Assay: NCI In Vivo Anticancer Drug Screen. Data for tumor model P388 Leukemia (intraperitoneal) in B6D2F1 (BDF1) mice
Conditions: endpoint: median survival time, higher = longer survival
Outline: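 Mice carrying the transplantable tumour receive compound or vehicle. Survival is followed in each arm, and the treated measure is divided by the vehicle measure.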

[1] = dose: 25.0 mg/kg/injection, schedule: Q01DX009 (sc), vehicle: olive oil, sesame oil, peanut oil
[2] = dose: 50.0 mg/kg/injection, schedule: Q01DX009 (sc), vehicle: olive oil, sesame oil, peanut oil
[3] = dose: 100.0 mg/kg/injection, schedule: Q01DX009 (sc), vehicle: olive oil, sesame oil, peanut oil
[4] = dose: 100.0 mg/kg/injection, schedule: Q04DX003 (sc), vehicle: olive oil, sesame oil, peanut oil
[5] = dose: 200.0 mg/kg/injection, schedule: Q04DX003 (sc), vehicle: olive oil, sesame oil, peanut oil
[6] = dose: 400.0 mg/kg/injection, schedule: Q04DX003 (sc), vehicle: olive oil, sesame oil, peanut oil
[7] = dose: 50.0 mg/kg/injection, schedule: Q01DX009 (ip), vehicle: saline with Tween-80
[8] = dose: 100.0 mg/kg/injection, schedule: Q01DX009 (ip), vehicle: saline with Tween-80
[9] = dose: 100.0 mg/kg/injection, schedule: Q04DX003 (ip), vehicle: saline with Tween-80
[10] = dose: 200.0 mg/kg/injection, schedule: Q04DX003 (ip), vehicle: saline with Tween-80
[11] = dose: 400.0 mg/kg/injection, schedule: Q04DX003 (ip), vehicle: saline with Tween-80
[12] = dose: 3.13 mg/kg/injection, schedule: Q01DX009 (ip), vehicle: Klucel (hydroxypropylcellulose) (HPC)
[13] = dose: 6.25 mg/kg/injection, schedule: Q01DX009 (ip), vehicle: Klucel (hydroxypropylcellulose) (HPC)
[14] = dose: 12.5 mg/kg/injection, schedule: Q01DX009 (ip), vehicle: water
[15] = dose: 50.0 mg/kg/injection, schedule: Q04DX003 (ip), vehicle: water
[16] = dose: 100.0 mg/kg/injection, schedule: Q01DX009 (ip), vehicle: Klucel (hydroxypropylcellulose) (HPC)
[17] = dose: 200.0 mg/kg/injection, schedule: Q01DX009 (ip), vehicle: Klucel (hydroxypropylcellulose) (HPC)
[18] = dose: 100.0 mg/kg/injection, schedule: Q01DX001 (ip), vehicle: Klucel (hydroxypropylcellulose) (HPC)

For `NC(=S)NNC(=O)C(Cc1ccccc1)NC(=O)OCc1ccccc1` (stereo not given), the T/C (dose: 12.5 mg/kg/injection, schedule: Q01DX009 (ip), vehicle: saline with Tween-80) was 100 % of control and the T/C (dose: 25.0 mg/kg/injection, schedule: Q01DX009 (ip), vehicle: saline with Tween-80) was 94 % of control.

`CCCP(CCC)c1ccccc1` was tested, and the T/C [1] was 108 % of control, the T/C [2] was 95 % of control and the T/C [3] was 95 % of control. The T/C [4] was 96 % of control, the T/C [5] was 96 % of control and the T/C (dose: 400.0 mg/kg/injection, schedule: Q01DX009 (sc), vehicle: olive oil, sesame oil, peanut oil) was 92 % of control. For the same compound, the T/C [6] was 123 % of control.

For `CS(=O)C/C(=C/CCCl)c1cccs1` (stereo not given), the T/C [7] was 105 % of control, the T/C [8] was 94 % of control and the T/C (dose: 200.0 mg/kg/injection, schedule: Q01DX009 (ip), vehicle: saline with Tween-80) was 105 % of control.

For `CCOC(=O)C(=CN1CCOCC1)C(=O)OCC`, the T/C [9] was 100 % of control, the T/C [10] was 100 % of control and the T/C [11] was 109 % of control.

`O=C(NNc1ccc(F)cc1)C12CC3CC(CC(C3)C1)C2` was tested, and the T/C [7] was 104 % of control.

For `O=C1c2ccccc2C(=O)N1CC[P+](c1ccccc1)(c1ccccc1)c1ccccc1`, the T/C (dose: 0.78 mg/kg/injection, schedule: Q01DX009 (ip), vehicle: water) was 103 % of control, the T/C (dose: 1.56 mg/kg/injection, schedule: Q04DX003 (ip), vehicle: water) was 112 % of control and the T/C (dose: 3.12 mg/kg/injection, schedule: Q04DX003 (ip), vehicle: water) was 94 % of control and 123 % of control. The T/C [12] was 165 % of control, the T/C [13] was 151 % of control and 153 % of control and the T/C (dose: 6.25 mg/kg/injection, schedule: Q01DX009 (ip), vehicle: water) was 174 % of control. For the same compound, the T/C (dose: 6.25 mg/kg/injection, schedule: Q04DX003 (ip), vehicle: water) was 108 % of control and 120 % of control, the T/C (dose: 12.5 mg/kg/injection, schedule: Q01DX009 (ip), vehicle: Klucel (hydroxypropylcellulose) (HPC)) was 157 % of control and 160 % of control and the T/C [14] was 158 % of control. For the same compound, the T/C (dose: 12.5 mg/kg/injection, schedule: Q04DX003 (ip), vehicle: water) was 119 % of control and 120 % of control, the T/C (dose: 25.0 mg/kg/injection, schedule: Q01DX009 (ip), vehicle: Klucel (hydroxypropylcellulose) (HPC)) was 90 % of control and the T/C [15] was 120 % of control.

`CCCCC(=O)OCC1OC(n2cnc3c(=S)nc[nH]c32)C(OC(=O)CCCC)C1OC(=O)CCCC` (stereo not given) was tested, and the T/C (dose: 12.5 mg/kg/injection, schedule: Q01DX009 (sc), vehicle: olive oil, sesame oil, peanut oil) was 100 % of control, the T/C [1] was 91 % of control and the T/C [2] was 100 % of control. The T/C [3] was 96 % of control, the T/C [4] was 108 % of control and the T/C [5] was 108 % of control. The T/C [6] was 116 % of control.

In the case of `c1cnc2sccc2c1`, the T/C [9] was 100 % of control and the T/C [10] was 109 % of control.

In the case of `CN(c1ccccc1)S(=O)(=O)c1ccccc1`, the T/C [9] was 95 % of control.

For `CCCCCCCCCCCC(=O)CCCC`, the T/C (dose: 100.0 mg/kg/injection, schedule: Q01DX009 (ip), vehicle: other) was 110 % of control and the T/C (dose: 200.0 mg/kg/injection, schedule: Q01DX009 (ip), vehicle: other) was 90 % of control.

With `CCOC(=O)C(Br)(C(=O)OCC)C(c1ccccc1)c1ccccc1` the T/C [8] was 95 % of control and the T/C (dose: 400.0 mg/kg/injection, schedule: Q01DX009 (ip), vehicle: saline with Tween-80) was 109 % of control.

In the case of `O=C(Nc1nncs1)c1cccs1`, the T/C (dose: 50.0 mg/kg/injection, schedule: Q04DX002 (ip), vehicle: saline with Tween-80) was 109 % of control, the T/C (dose: 100.0 mg/kg/injection, schedule: Q04DX002 (ip), vehicle: saline with Tween-80) was 93 % of control and the T/C (dose: 600.0 mg/kg/injection, schedule: Q04DX002 (ip), vehicle: saline with Tween-80) was 190 % of control.

For `OCc1cc(Cl)ccc1O`, the T/C (dose: 50.0 mg/kg/injection, schedule: Q01DX009 (ip), vehicle: Klucel (hydroxypropylcellulose) (HPC)) was 101 % of control, the T/C [16] was 103 % of control and the T/C (dose: 100.0 mg/kg/injection, schedule: Q04DX003 (ip), vehicle: other) was 100 % of control. The T/C (dose: 132.0 mg/kg/injection, schedule: Q04DX003 (ip), vehicle: other) was 95 % of control, the T/C [17] was 110 % of control and the T/C (dose: 300.0 mg/kg/injection, schedule: Q04DX003 (ip), vehicle: other) was 108 % of control. For the same compound, the T/C (dose: 400.0 mg/kg/injection, schedule: Q04DX003 (ip), vehicle: other) was 109 % of control.

For `CN1C(=O)NC2C(CO)OC1C2O` (stereo not given), the T/C (dose: 100.0 mg/kg/injection, schedule: Q01DX001 (ip), vehicle: saline) was 104 % of control, the T/C (dose: 200.0 mg/kg/injection, schedule: Q01DX001 (ip), vehicle: saline) was 104 % of control and the T/C (dose: 400.0 mg/kg/injection, schedule: Q01DX001 (ip), vehicle: saline) was 100 % of control.

With `CCCC1CC[N-]CC1.CCCC1CC[N-]CC1.[Cl][Co][Cl]` the T/C [14] was 91 % of control and 100 % of control, the T/C (dose: 25.0 mg/kg/injection, schedule: Q01DX009 (ip), vehicle: water) was 116 % of control and the T/C (dose: 50.0 mg/kg/injection, schedule: Q01DX009 (ip), vehicle: water) was 112 % of control. For the same compound, the T/C [15] was 120 % of control.

With `COc1ccc(C2CCCCC2O)cc1` (stereo not given) the T/C [16] was 100 % of control, the T/C (dose: 100.0 mg/kg/injection, schedule: Q04DX003 (ip), vehicle: Klucel (hydroxypropylcellulose) (HPC)) was 100 % of control and the T/C [17] was 100 % of control. The T/C (dose: 200.0 mg/kg/injection, schedule: Q04DX003 (ip), vehicle: Klucel (hydroxypropylcellulose) (HPC)) was 100 % of control and the T/C (dose: 400.0 mg/kg/injection, schedule: Q04DX003 (ip), vehicle: Klucel (hydroxypropylcellulose) (HPC)) was 110 % of control.

`NC(=O)C1(c2ccccc2)CCN(Cc2ccccc2)CC1` was tested, and the T/C [7] was 96 % of control, the T/C (dose: 50.0 mg/kg/injection, schedule: Q04DX003 (ip), vehicle: saline with Tween-80) was 100 % of control and the T/C [8] was 111 % of control. The T/C [9] was 90 % of control.

For `O=C(Nc1cccc(Cl)c1)Oc1ccc2ccccc2c1`, the T/C [18] was 109 % of control, the T/C (dose: 200.0 mg/kg/injection, schedule: Q01DX001 (ip), vehicle: Klucel (hydroxypropylcellulose) (HPC)) was 113 % of control and the T/C (dose: 400.0 mg/kg/injection, schedule: Q01DX001 (ip), vehicle: Klucel (hydroxypropylcellulose) (HPC)) was 100 % of control.

For `CCCCCCCCCCSCCSCCSCCCCCCCCCC`, the T/C (dose: 25.0 mg/kg/injection, schedule: Q01DX001 (ip), vehicle: Klucel (hydroxypropylcellulose) (HPC)) was 100 % of control, the T/C (dose: 50.0 mg/kg/injection, schedule: Q01DX001 (ip), vehicle: Klucel (hydroxypropylcellulose) (HPC)) was 100 % of control and the T/C [18] was 100 % of control.

`C(=Nc1ccccc1)c1ccccc1C=Nc1ccccc1` was tested, and the T/C [9] was 104 % of control, the T/C [10] was 109 % of control and the T/C [11] was 100 % of control.

`Cc1ncc([N+](=O)[O-])n1CCOc1c(Br)cc(Br)cc1CN(C)C1CCCCC1` was tested, and the T/C [9] was 100 % of control, the T/C [10] was 105 % of control and the T/C [11] was 115 % of control.

In the case of `O=c1cc(CBr)c2ccccc2[nH]1`, the T/C (dose: 6.25 mg/kg/injection, schedule: Q04DX003 (ip), vehicle: saline with Tween-80) was 91 % of control, the T/C (dose: 12.5 mg/kg/injection, schedule: Q04DX003 (ip), vehicle: saline with Tween-80) was 104 % of control and the T/C (dose: 25.0 mg/kg/injection, schedule: Q04DX003 (ip), vehicle: saline with Tween-80) was 104 % of control.

In the case of `c1ccc(C[P+](c2ccccc2)(c2ccccc2)c2ccccc2)cc1`, the T/C [12] was 104 % of control, the T/C (dose: 3.13 mg/kg/injection, schedule: Q04DX003 (ip), vehicle: Klucel (hydroxypropylcellulose) (HPC)) was 104 % of control and the T/C [13] was 118 % of control. For the same compound, the T/C (dose: 6.25 mg/kg/injection, schedule: Q04DX003 (ip), vehicle: Klucel (hydroxypropylcellulose) (HPC)) was 113 % of control and the T/C (dose: 12.5 mg/kg/injection, schedule: Q04DX003 (ip), vehicle: Klucel (hydroxypropylcellulose) (HPC)) was 118 % of control.

`CCN1c2ccccc2CC(CCCN(C)C)(C(N)=O)c2ccccc21` (stereo not given) was tested, and the T/C (dose: 100.0 mg/kg/injection, schedule: Q01DX009 (ip), vehicle: saline) was 97 % of control and the T/C (dose: 200.0 mg/kg/injection, schedule: Q01DX009 (ip), vehicle: saline) was 98 % of control.

From PubChem BioAssay AID328 (DTP/NCI, 2004)
